Among the data in patent US20240174662A1, “SMALL MOLECULE INHIBITORS OF SALT INDUCIBLE KINASES” (Janssen Biotech, Inc., priority 2021, published 2024) are IC50 values, retold here.

A value given as a limit tells only on which side of the number the result lay.

The experiment concerns the target SIK2 (Homo sapiens (Human), UniProt Q9H0K1). As to the kind of experiment: SIK2 Enzymatic Assay Version 2 (High ATP). It counts as biochemical. As to conditions: 3 mM ATP and 200 μM HDAC5tide final, ADP-Glo Max luminescence. Summed up: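 Run at room temperature; SIK2 enzyme at 6 nM (2× final) preincubated with compound 30 min before reaction. ADP formation detected by ADP-Glo Max (2 h reagent, 1 h detection) with luminescence read-out.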
(In ADP-Glo the light output rises with the ADP produced.)

Sequence of SIK2 (Q9H0K1 whole entry, species assumed): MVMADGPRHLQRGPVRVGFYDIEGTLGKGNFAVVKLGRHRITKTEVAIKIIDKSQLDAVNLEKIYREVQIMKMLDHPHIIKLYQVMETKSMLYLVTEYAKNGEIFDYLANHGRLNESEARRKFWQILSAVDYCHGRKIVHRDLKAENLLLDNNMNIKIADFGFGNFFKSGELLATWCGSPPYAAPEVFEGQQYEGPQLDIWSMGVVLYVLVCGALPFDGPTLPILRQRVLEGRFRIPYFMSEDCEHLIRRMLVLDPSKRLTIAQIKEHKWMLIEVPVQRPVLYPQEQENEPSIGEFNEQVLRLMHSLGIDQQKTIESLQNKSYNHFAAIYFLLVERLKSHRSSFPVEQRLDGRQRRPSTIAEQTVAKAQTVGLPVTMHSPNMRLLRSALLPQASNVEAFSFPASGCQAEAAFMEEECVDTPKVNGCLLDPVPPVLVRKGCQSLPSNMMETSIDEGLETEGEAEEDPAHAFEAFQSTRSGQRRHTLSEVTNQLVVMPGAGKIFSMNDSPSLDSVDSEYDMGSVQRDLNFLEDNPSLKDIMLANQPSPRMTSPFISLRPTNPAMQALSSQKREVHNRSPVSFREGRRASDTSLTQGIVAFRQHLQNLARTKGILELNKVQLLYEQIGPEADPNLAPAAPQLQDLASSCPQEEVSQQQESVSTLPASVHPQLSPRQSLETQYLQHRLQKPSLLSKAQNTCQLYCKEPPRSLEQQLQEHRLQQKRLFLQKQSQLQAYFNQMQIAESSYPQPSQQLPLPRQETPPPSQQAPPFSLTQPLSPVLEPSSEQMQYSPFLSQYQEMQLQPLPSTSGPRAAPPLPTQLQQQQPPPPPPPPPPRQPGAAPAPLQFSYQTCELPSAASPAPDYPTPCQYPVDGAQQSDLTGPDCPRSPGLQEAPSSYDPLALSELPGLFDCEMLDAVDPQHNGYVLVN

For `Cn1ncc(OC[C@@H](N)C(C)(C)O)c1-c1ccn2nc(NC(=O)C3CC3)cc2c1` [Example 426, N-[5-[4-[(2R)-2-amino-3-hydroxy-3-methyl-butoxy]-2-methyl-pyrazol-3-yl]pyrazolo[1,5-a]pyridin-2-yl]cyclopropanecarboxamide], the IC50 (in general, the concentration needed to halve the response being measured) is 71.6 nM.

`COC[C@@H]1C[C@H](Oc2noc(C)c2-c2ccn3nc(Nc4cc(C)c(C)nn4)cc3c2)CN1C` [Example 391, N-(5,6-dimethylpyridazin-3-yl)-5-[3-[(3S,5S)-5-(methoxymethyl)-1-methyl-pyrrolidin-3-yl]oxy-5-methyl-isoxazol-4-yl]pyrazolo[1,5-a]pyridin-2-amine] had an IC50 of 94.1 nM.

The compound `Cc1onc(O[C@H]2C[C@@H]3C[C@H]2CN3)c1-c1ccn2nc(NC(=O)C3CC3)cc2c1` (single isomer, unassigned) [Example 217, N-(5-(3-(((1*S,4*S,5*R)-2-azabicyclo[2.2.1]heptan-5-yl)oxy)-5-methylisoxazol-4-yl)pyrazolo[1,5-a]pyridin-2-yl)cyclopropanecarboxamide] registered an IC50 of 24.1 nM.

Compound `CCN1CC[C@@H]1COc1cnn(C)c1-c1ccn2nc(Nc3cnc(C)cn3)cc2c1` [Example 21, (R)-5-(4-((1-Ethylazetidin-2-yl)methoxy)-1-methyl-1H-pyrazol-5-yl)-N-(5-methylpyrazin-2-yl)pyrazolo[1,5-a]pyridin-2-amine] had an IC50 of 0.9 nM.

Regarding `CN1C[C@@H](F)[C@@H](Oc2cnn(C)c2-c2ccn3nc(NC(=O)C4CC4)cc3c2)C1` [Example 499], half-maximal inhibition (IC50) required 720 nM. Compared with the last compound, the IC50 is about 800-fold higher.

Consider `CCN1CC[C@@H]1COc1cnn(C)c1-c1ccn2nc(Nc3cc(C)nc(OC)n3)cc2c1` [Example 173, 5-[4-[[(2R)-1-ethylazetidin-2-yl]methoxy]-2-methyl-pyrazol-3-yl]-N-(2-methoxy-6-methyl-pyrimidin-4-yl)pyrazolo[1,5-a]pyridin-2-amine], for which the IC50 is less than 0.847 nM.

In the case of `Cc1onc(O[C@H]2CN[C@H]3CCCO[C@H]32)c1-c1ccn2nc(NC(=O)C3CC3)cc2c1` (single isomer, unassigned) [Example 228, N-(5-(5-methyl-3-(((3*S,3a*R,7a*S)-octahydropyrano[3,2-b]pyrrol-3-yl)oxy)isoxazol-4-yl)pyrazolo[1,5-a]pyridin-2-yl)cyclopropanecarboxamide], inhibition was half-maximal at 16.4 nM (IC50).

`Cn1ncc(OC[C@H]2C[C@H](N)C2)c1-c1ccn2nc(NC(=O)C3CC3)cc2c1` [Example 334, N-[5-[4-[(3-aminocyclobutyl)methoxy]-2-methyl-pyrazol-3-yl]pyrazolo[1,5-a]pyridin-2-yl]cyclopropanecarboxamide] had an IC50 of 55.1 nM.

On to `CN1CCCC[C@@H]1COc1cnn(C)c1-c1ccn2nc(NC(=O)C3CC3)cc2c1` [Example 507, N-[5-[2-methyl-4-[[(2R)-1-methyl-2-piperidyl]methoxy]pyrazol-3-yl]pyrazolo[1,5-a]pyridin-2-yl]cyclopropanecarboxamide], for which it took 1700 nM to reach half-maximal inhibition (IC50).

On to `Cc1onc(OC[C@](C)(c2ccccc2)N(C)C)c1-c1ccn2nc(NC(=O)C3CC3)cc2c1` [Example 226, N-[5-[3-[(2S)-2-(dimethylamino)-2-phenyl-propoxy]-5-methyl-isoxazol-4-yl]pyrazolo[1,5-a]pyridin-2-yl]cyclopropanecarboxamide], for which half-maximal inhibition (IC50) required 12.8 nM.

In the case of `Cc1cc(Nc2cc3cc(-c4c(OC[C@@H]5COC(C)(C)C5)cnn4C)ccn3n2)nc(C)n1` (single isomer, unassigned) [Example 307, (*R)—N-(2,6-dimethylpyrimidin-4-yl)-5-[4-[(5,5-dimethyltetrahydrofuran-3-yl)methoxy]-2-methyl-pyrazol-3-yl]pyrazolo[1,5-a]pyridin-2-amine], half-maximal inhibition (IC50) was put at 30.9 nM. This IC50 is about 2.4-fold higher than that of the compound before.

As for `CCN1CC[C@@H]1COc1cnn(C)c1-c1ccn2nc(Nc3cc(C)nc(C)n3)cc2c1` [Example 62, N-(2,6-dimethylpyrimidin-4-yl)-5-[4-[[(2R)-1-ethylazetidin-2-yl]methoxy]-2-methyl-pyrazol-3-yl]pyrazolo[1,5-a]pyridin-2-amine], the IC50 is 0.9 nM.

As for `CN1CCC1(C)COc1cnn(C)c1-c1ccn2nc(NC(=O)C3CC3)cc2c1` (racemic) [Example 54, (rac)-N-[5-[4-[(1,2-dimethylazetidin-2-yl)methoxy]-2-methyl-pyrazol-3-yl]pyrazolo[1,5-a]pyridin-2-yl]cyclopropanecarboxamide], the midpoint of inhibition, the IC50, lay at 178 nM.

As for `C[C@@H]1NC[C@H]1OCc1cnn(C)c1-c1ccn2nc(NC(=O)C3CC3)cc2c1` [Example 187, N-[5-[2-methyl-4-[[(2S,3R)-2-methylazetidin-3-yl]oxymethyl]pyrazol-3-yl]pyrazolo[1,5-a]pyridin-2-yl]cyclopropanecarboxamide], the IC50 stood at 23.5 nM. This IC50 is about 7.6-fold lower than that of the compound before.

In turn, `CO[C@@H]1CN(C)C[C@H]1COc1cnn(C)c1-c1ccn2nc(NC(=O)C3CC3)cc2c1` [Example 423, N-[5-[4-[[(3S,4S)-4-methoxy-1-methyl-pyrrolidin-3-yl]methoxy]-2-methyl-pyrazol-3-yl]pyrazolo[1,5-a]pyridin-2-yl]cyclopropanecarboxamide] gave an IC50 of 151 nM.

Regarding `Cc1onc(O[C@H]2C[C@H]3C[C@@H]2CN3)c1-c1ccn2nc(NC(=O)C3CC3)cc2c1` (racemic) [Example 212, Exo-Rac-N-[5-[3-(2-azabicyclo[2.2.1]heptan-5-yloxy)-5-methyl-isoxazol-4-yl]pyrazolo[1,5-a]pyridin-2-yl]cyclopropanecarboxamide], the midpoint of inhibition, the IC50, lay at 46.4 nM.

Compound `CCN1CC[C@@H]1COc1cnn(C)c1-c1ccn2nc(NC(=O)C3CC3)cc2c1` [Example 52, N-[5-[4-[[(2R)-1-ethylazetidin-2-yl]methoxy]-2-methyl-pyrazol-3-yl]pyrazolo[1,5-a]pyridin-2-yl]cyclopropanecarboxamide] came in with an IC50 of 3.6 nM.

As to `CN1CC(COc2cnn(C)c2-c2ccn3nc(NC(=O)C4CC4)cc3c2)(c2ccccc2)C1` [Example 410, N-[5-[2-methyl-4-[(1-methyl-3-phenyl-azetidin-3-yl)methoxy]pyrazol-3-yl]pyrazolo[1,5-a]pyridin-2-yl]cyclopropanecarboxamide], half-maximal inhibition (IC50) required 72.5 nM.

The compound `Cn1ncc(OC[C@H]2CCN2C[C@@H]2CCCO2)c1-c1ccn2nc(NC(=O)C3CC3)cc2c1` (relative stereo) [Example 353, (*S)—N-[5-[2-methyl-4-[[1-(tetrahydrofuran-2-ylmethyl)azetidin-2-yl]methoxy]pyrazol-3-yl]pyrazolo[1,5-a]pyridin-2-yl]cyclopropanecarboxamide] came in with an IC50 of 67.9 nM.

`C[C@H]1CNC[C@H]1OCc1cnn(C)c1-c1ccn2nc(NC(=O)C3CC3)cc2c1` (single isomer, unassigned) [Example 194, (3*S,4*S)—N-[5-[2-methyl-4-[(4-methylpyrrolidin-3-yl)oxymethyl]pyrazol-3-yl]pyrazolo[1,5-a]pyridin-2-yl]cyclopropanecarboxamide] came in with an IC50 of 4.7 nM.

Compound `CN1C[C@H]2C[C@H]2[C@@H]1COc1cnn(C)c1-c1ccn2nc(NC(=O)C3CC3)cc2c1` [Example 432, N-[5-[2-methyl-4-[[(1S,4R,5R)-3-methyl-3-azabicyclo[3.1.0]hexan-4-yl]methoxy]pyrazol-3-yl]pyrazolo[1,5-a]pyridin-2-yl]cyclopropanecarboxamide] returned an IC50 of 76.8 nM.

`Cc1cc(Nc2cc3cc(-c4c(CO[C@@H]5CN(C)C[C@H]5C)cnn4C)ccn3n2)nc(C)n1` (relative stereo) [Example 366, Trans-*S, *R—N-(2,6-dimethylpyrimidin-4-yl)-5-[4-[(1,4-dimethylpyrrolidin-3-yl)oxymethyl]-2-methyl-pyrazol-3-yl]pyrazolo[1,5-a]pyridin-2-amine] registered a half-maximal inhibitory concentration (IC50) of 1.6 nM. Compared with the last compound, the IC50 is about 48-fold lower.

With `Cn1ccc(CN2CC[C@@H]2COc2cnn(C)c2-c2ccn3nc(NC(=O)C4CC4)cc3c2)n1` [Example 430, N-[5-[2-methyl-4-[[(2R)-1-[(1-methylpyrazol-3-yl)methyl]azetidin-2-yl]methoxy]pyrazol-3-yl]pyrazolo[1,5-a]pyridin-2-yl]cyclopropanecarboxamide], the IC50 was 97 nM.

Regarding `Cn1ncc(OC[C@H]2CNC[C@@H]2O)c1-c1ccn2nc(NC(=O)C3CC3)cc2c1` [Example 345, N-[5-[4-[[(3R,4R)-4-hydroxypyrrolidin-3-yl]methoxy]-2-methyl-pyrazol-3-yl]pyrazolo[1,5-a]pyridin-2-yl]cyclopropanecarboxamide], the IC50 was found to be 58.2 nM.

Regarding `Cn1ncc(COC2CCNCC2)c1-c1ccn2nc(NC(=O)C3CC3)cc2c1` [Example 463, N-[5-[2-methyl-4-(4-piperidyloxymethyl)pyrazol-3-yl]pyrazolo[1,5-a]pyridin-2-yl]cyclopropanecarboxamide], the half-maximal inhibitory concentration (IC50) worked out at 74.5 nM.

As for `CNC(=O)c1cc(Nc2cc3cc(-c4c(OC[C@H]5CCN5C)cnn4C)ccn3n2)nc(C)n1` [Example 120, N,2-dimethyl-6-[[5-[2-methyl-4-[[(2R)-1-methylazetidin-2-yl]methoxy]pyrazol-3-yl]pyrazolo[1,5-a]pyridin-2-yl]amino]pyrimidine-4-carboxamide], the IC50 was 23.7 nM.

`CC(C)c1nccc(Nc2cc3cc(-c4c(O[C@H]5CCN(C)C5)cnn4C)ccn3n2)n1` [Example 270, N-(2-isopropylpyrimidin-4-yl)-5-[2-methyl-4-[(3S)-1-methylpyrrolidin-3-yl]oxy-pyrazol-3-yl]pyrazolo[1,5-a]pyridin-2-amine] had an IC50 of 47.7 nM.

The compound `Cc1cc(Nc2cc3cc(-c4c(OC[C@H]5CCN5CCF)cnn4C)ccn3n2)nnc1C` [Example 276, N-(5,6-dimethylpyridazin-3-yl)-5-[4-[[(2R)-1-(2-fluoroethyl)azetidin-2-yl]methoxy]-2-methyl-pyrazol-3-yl]pyrazolo[1,5-a]pyridin-2-amine] gave an IC50 of 0.9 nM.

`CCN1CC[C@@H]1COc1cnn(C)c1-c1ccn2nc(Nc3cc(C(F)(F)F)ncn3)cc2c1` [Example 164, 5-[4-[[(2R)-1-ethylazetidin-2-yl]methoxy]-2-methyl-pyrazol-3-yl]-N-[6-(trifluoromethyl)pyrimidin-4-yl]pyrazolo[1,5-a]pyridin-2-amine] displayed an IC50 of 1.5 nM.
